Values of other authors as cited in US20140255982A1, “METHOD OF CANCER DIAGNOSIS USING THE ANALYSIS OF ISOTOPES” (priority 2007, published 2014).

Legend:
[1] = test system: microorganisms; details: deuterium in the form of D2O
[2] = test system: rats; details: within 5 days; deuterium in the form of D2O

## [2H]O[2H] [D2O]
[1]
  inhibitory activity against microorganisms: 92%
[2]
  kill rate of rats: 99.5%
